Experimental data published in patent US8980951B2, “Sesquiterpenes for antifungal applications” (Kansas State University Research Foundation, priority 2011, dated 2015).
Converted amounts (≈) assume the structure as drawn.

What was measured:
[1] = test system: various fungi; assay: Fungal EC50 and selective index summary; type: cell-based; details: against various fungi; read-out: effective fungal concentration-50 (EC50)
Method: (§1) Yeast cells or conidia (for filamentous fungi) were suspended in RPMI 1640 (with 50 mM glucose) medium to a final concentration of 10^4 cfu/ml and distributed in a 96-well microplate to a total volume of 100 μl/well. Albicanol and drimenol were added into the wells and serial dilutions (broad or narrow range) with replicates were made, and wells with or without DMSO served as controls. Plates were incubated without shaking at 37° C. for 24-48 h for yeasts and 30° C. for 4 days for filamentous fungi (Aspergillus and Trichophyton sp). The MIC was defined as the lowest compound concentration at which no growth occurred, as determined visually and by OD600 measurement (or microscopically, inverted). As a positive control, amphotericin B (AMB) (1 μg/ml) was also included in parallel. Cytotoxicity of albicanol and drimenol was determined using human intestinal epithelial cell lines (Int-407) by utilizing cell viability assay kit of Promega.

[2] = test system: Caenorhabditis elegans (worm); assay: Toxicity to worms in the Candidiasis model; type: in vivo; details: at concentrations that inhibit fungal growth
Method: (§2) In order to determine antifungal efficacy and toxicity of albicanol and drimenol simultaneously, Caenorhabditis elegans (worm), a non-mammalian host model of Candidiasis was used. Worms fed with C. albicans yeast cells were incubated in RPMI medium in the presence or absence of drimenol. After 4-5 days worms were scored for survival under an inverted microscope and images were recorded. […] Note dead worms (straight shapes) and clusters of fungal growth in wells without drimenol (−Dri).

[3] = test system: A. nidulans, C. albicans, C. albicans 95-158 Flu-R, Cryp. neomormans, Candida krusei, and C. glabrata; assay: Fungicidal test, viability of treated fungal cells spotted on YPD agar; type: cell-based; details: for effect of amines or YPD medium on bioactivity: presence of amines or YPD medium
[4] = test system: dermatophyte fungi; assay: MIC summary for dermatophyte fungi; type: cell-based
Method: (§3) Synthetic pure albicanol and drimenol were dissolved in DMSO (10 mg/ml as stock solution) and used to determine their antifungal activities (minimum inhibitory concentration, MIC) against various fungi according to the microdilution assay of Clinical and Laboratory Standards Institute (CLSI (2008). Reference method for broth dilution antifungal susceptibility testing of yeasts and filamentous fungi: Approved Standard-Third Edition. Clinical and Laboratory Standards Institute 940 West Valley Road, Wayne, Pa. CLSI document M27-A3 & M38-A28. An initial assay had confirmed the antifungal activity of albicanol and drimenol; therefore, the susceptibility assay was extended to other pathogenic fungi including fluconazole resistant C. albicans, various species of candida, Cryptococcus, Aspergillus and a dermatophyte fungus.
(§4) Yeast cells or conidia (for filamentous fungi) were suspended in RPMI 1640 (with 50 mM glucose) medium to a final concentration of 10^4 cfu/ml and distributed in a 96-well microplate to a total volume of 100 μl/well. […] The MIC was defined as the lowest compound concentration at which no growth occurred, as determined visually and by OD600 measurement (or microscopically, inverted). […] Cytotoxicity of albicanol and drimenol was determined using human intestinal epithelial cell lines (Int-407) by utilizing cell viability assay kit of Promega.

[5] = Cytotoxicity, Promega's cell viability assay kit; type: cell-based; details: human, Int-407 intestinal epithelial cells; summary in description; read-out: cytotoxic inhibitory concentration (IC50) against Int. 407
Method: as §1

[6] = test system: fluconazole resistant C. alibcans, Cryptococcus sp. and Aspergillus sp.; assay: MIC summary for fungi; type: cell-based; details: Candida albicans, read-out: minimum inhibitory concentration (MIC)
Method: as §3, §4

[7] = test system: C. albicans Day 185; assay: CLSI microdilution antifungal susceptibility assay; type: cell-based; details: for EC50 / MIC: Candida albicans; for EC50: DAY185, 50% fungal inhibitory concentration; for MIC: DAY185, lowest concentration with no fungal growth, CLSI
Method: as §3, §1

[8] = test system: Cryp. neoformans; assay: CLSI microdilution antifungal susceptibility assay; type: cell-based; details: for EC50 / MIC: Cryptococcus neoformans; for EC50: 50% fungal inhibitory concentration; for MIC: lowest concentration with no fungal growth, CLSI
Method: as §3, §1

[9] = test system: T. equinum; assay: CLSI microdilution antifungal susceptibility assay; type: cell-based; details: for EC50: 50% fungal inhibitory concentration; for MIC: lowest concentration with no fungal growth, CLSI
Method: as §3, §1

[10] = test system: C. albicans SC5314; assay: CLSI microdilution antifungal susceptibility assay; type: cell-based; details: for EC50 / MIC: Candida albicans; for EC50: 50% fungal inhibitory concentration; for MIC: lowest concentration with no fungal growth, CLSI
Method: as §3, §1

[11] = test system: C. albicans; assay: Caenorhabditis elegans host model of Candidiasis; type: in vivo; details: 50 μg/ml; RPMI medium; scored after 4-5 days
Method: as §2

[12] = test system: barcoded mutants of Saccharomyces cerevisiae; assay: Genome-wide fitness (haploinsufficiency) profiling, yeast TAG4 microarray; type: cell-based; details: at 20% growth inhibitory concentration; 20 generations

Compound | EC50 [1] [µg/mL] | cytotoxicity to worms [2] | effect of amines or YPD medium on bioactivity [3] | MIC [4] [µg/mL] | CC50 [5] [µg/mL] | MIC [6] [µg/mL] | Selective Index (Int-407 IC50/fungal EC50) [7] | EC50 [7] [µg/mL] | MIC [7] [µg/mL] | Selective Index (Int-407 IC50/fungal EC50) [8] | EC50 [8] [µg/mL] | MIC [8] [µg/mL] | Selective Index (Int-407 IC50/fungal EC50) [9] | EC50 [9] [µg/mL] | MIC [9] [µg/mL] | Selective Index (Int-407 IC50/fungal EC50) [10] | EC50 [10] [µg/mL] | MIC [10] [µg/mL] | other results
C=C1CC[C@H]2C(C)(C)CCC[C@]2(C)[C@H]1CO [Albicanol, (+)-albicanol] | 5 to 30 (≈ 22.5 to 135 µM) | less or no cytotoxicity to worms | not affected | 5 to 15 (≈ 22.5 to 67.5 µM) | ~50 (≈ 225 µM) | 25 to 50 (≈ 112 to 225 µM) | 2.27 | 22 (≈ 98.9 µM) | 40 (≈ 180 µM) | 2.27 | 22 (≈ 98.9 µM) | 40 (≈ 180 µM) | 6.25 (6.25) | 8 (≈ 36 µM) | 15 (≈ 67.5 µM) | 2 | 25 (≈ 112 µM) | 50 (≈ 225 µM) | –
CC1=CC[C@H]2C(C)(C)CCC[C@]2(C)[C@H]1CO [drimenol, (−)-drimenol] | 5 to 30 (≈ 22.5 to 135 µM) | less or no cytotoxicity to worms | not affected | 5 to 15 (≈ 22.5 to 67.5 µM) | ~50 (≈ 225 µM) | 25 to 50 (≈ 112 to 225 µM) | 4.16 | 12 (≈ 54 µM) | 25 (≈ 112 µM) | 3.12 | 16 (≈ 72 µM) | 30 (≈ 135 µM) | 6.25 (6.25) | 8 (≈ 36 µM) | 5 (≈ 22.5 µM) | 2.27 | 22 (≈ 98.9 µM) | 40 (≈ 180 µM) | MFC ([3]; all the fungi tested, 100 μg/ml for 48 h, read-out: minimum fungicidal concentration, MFC): 100 µg/mL (≈ 450 µM); protection of worms from C. albicans mediated death [11]: prevented C. albicans growth and protected worms from C. albicans mediated death; strains/genes depleted at the log ratio of >1.5 [12]: 34
